This is an account of results in ChEMBL document CHEMBL5226280, “Non-hydroxamate inhibitors of 1-deoxy-d-xylulose 5-phosphate reductoisomerase (DXR): A critical review and future perspective” (Eur J Med Chem, 2021).

The target in experiment [1] is T1, 1-deoxy-D-xylulose 5-phosphate reductoisomerase (Escherichia coli K-12, UniProt P45568).
T1 sequence (P45568 whole entry): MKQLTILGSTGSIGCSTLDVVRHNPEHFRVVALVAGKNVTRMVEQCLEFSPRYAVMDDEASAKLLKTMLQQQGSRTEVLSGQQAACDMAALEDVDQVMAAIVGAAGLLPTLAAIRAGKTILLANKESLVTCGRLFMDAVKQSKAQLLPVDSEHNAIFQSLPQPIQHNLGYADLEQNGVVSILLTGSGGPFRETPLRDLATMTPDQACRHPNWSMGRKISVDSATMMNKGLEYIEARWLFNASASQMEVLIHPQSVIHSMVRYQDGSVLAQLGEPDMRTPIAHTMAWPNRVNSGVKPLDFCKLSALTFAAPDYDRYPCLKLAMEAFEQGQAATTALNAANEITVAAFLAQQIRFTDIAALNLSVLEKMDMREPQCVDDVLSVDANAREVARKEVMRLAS
Description: Inhibition of Escherichia coli DXR assessed as inhibition constant pre-incubated for 2 mins in presence of NADPH by spectrophotometric assay.

For experiment [2], the system named is Escherichia coli. The experiment can be described thus: Antimicrobial activity against Escherichia coli BW25113 assessed as minimal inhibitory concentration incubated for 18 hrs by microdilution assay. Type of experiment: functional. (Dilution methods test growth across graded concentrations, often in twofold steps.)
The test system of experiment [3] is Escherichia coli. Description: Antimicrobial activity against Escherichia coli deltaGlpT JW2234-2 assessed as minimal inhibitory concentration incubated for 18 hrs by microdilution assay. Format: functional.
For experiment [4], the target named is T1, 1-deoxy-D-xylulose 5-phosphate reductoisomerase. The experiment can be described thus: Inhibition of recombinant Escherichia coli DXR in presence of NADPH.
Another experiment has as its system Plasmodium falciparum. Description: Antiplasmodial activity against Plasmodium falciparum K1 infected in human erythrocyte assessed as assessed as inhibition of parasite growth. Format: functional, organism-based.
The target of experiment [5] is T1, 1-deoxy-D-xylulose 5-phosphate reductoisomerase. Description: Inhibition of His-tagged Escherichia coli DXR using DXP as substrate incubated for 1 min in presence of NADPH by UV-Vis spectrophotometric assay.

Each structure is given as a SMILES string. Values after ≈ are worked out from the molar mass of the structure shown. Where only a bound is given, the exact number is not on record here.

The IC50 is the concentration at which inhibition is half-maximal. Usually MIC90 stands for an inhibitory concentration at the 90% level, which refers to growth in some studies and to a panel of isolates in others.

In the case of `O=C(CCCP(=O)(O)O)NO`, the IC50 in experiment [1] is 0.17 µM.

For the molecule `CN(O)C(=O)CCCP(=O)(O)O`, the 50% inhibitory concentration (IC50) in experiment [1] was determined as 0.048 µM.

`CN1CC(=O)OB(CCCP(=O)(O)O)OC(=O)C1`: the MIC90 was 63 µg/mL (≈ 226 µM) in the experiment with Escherichia coli [2] and 52 µg/mL (≈ 186 µM) with Escherichia coli [3].

Consider `CN(O)C(=O)CCCC(=O)O`, for which the IC50 in experiment [4] was found to be 25 µM.

Regarding `CS(=O)(=O)c1ccccc1NC(=O)CCCP(=O)(O)O`, the 50% inhibitory concentration (IC50) in the experiment on Plasmodium falciparum was more than 64 µM.

With `O=P(O)(O)CCCB(O)O`, the values for the MIC90 in the experiment on Escherichia coli [2] and with Escherichia coli [3] were 53 µg/mL (≈ 316 µM) and 37 µg/mL (≈ 220 µM), respectively. Besides, in experiment [5], the concentration for half-maximal inhibition (IC50) worked out at 125 µM.

On to `CC(=O)c1ccccc1NC(=O)CCCP(=O)(O)O`, for which the IC50 in the experiment with Plasmodium falciparum is more than 64 µM.

Turning to `O=C(CCCP(=O)(O)O)Nc1ccccc1F`, in the experiment with Plasmodium falciparum, the IC50 is more than 64 µM.
